In ChEMBL document CHEMBL4513138, “CO-ADD screening of University of Mosul (Iraq) compounds”:

Legend:
HEK293 = test: cells; type: functional; conditions: Homo sapiens, ATCC CRL1573, HEK293; ASSAY_TEST Inhibition of Cell Viability; detection method Resazurin; Fluorescence (ex560/em590); MEDIA DMEM with 10% FBS; plate type 384well; TC; CORNING #3712; time 18 hr
Staphylococcus aureus = test: microbe, parasite or virus in culture; conditions: ATCC 43300, 18 h, ASSAY_TEST Inhibition of Bacterial Growth, detection method Absorption (OD600), MEDIA CAMHB, plate type 384well, NBS, CORNING #3640
Description: Antibacterial activity against Staphylococcus aureus MRSA ATCC 43300 (CO-ADD:GP_020); MIC in CAMBH media, using NBS plates, by OD(600)

Escherichia coli = test: microbe, parasite or virus in culture; conditions: ATCC 25922, 18 h, ASSAY_TEST Inhibition of Bacterial Growth, detection method Absorption (OD600), MEDIA CAMHB, plate type 384well, NBS, CORNING #3640
Description: Antibacterial activity against Escherichia coli ATCC 25922 (CO-ADD:GN_001); MIC in CAMBH media using NBS plates, by OD(600)

Klebsiella pneumoniae = test: microbe, parasite or virus in culture; conditions: ATCC 700603, 18 h, ASSAY_TEST Inhibition of Bacterial Growth, detection method Absorption (OD600), MEDIA CAMHB, plate type 384well, NBS, CORNING #3640
Description: Antibacterial activity against Klebsiella pneumoniae MDR ATCC 70063 (CO-ADD:GN_003); MIC in CAMBH media using NBS plates, by OD(600)

Pseudomonas aeruginosa = test: microbe, parasite or virus in culture; conditions: ATCC 27853, 18 h, ASSAY_TEST Inhibition of Bacterial Growth, detection method Absorption (OD600), MEDIA CAMHB, plate type 384well, NBS, CORNING #3640
Description: Antibacterial activity against Pseudomonas aeruginosa ATCC 27853 (CO-ADD:GN_042); MIC in CAMBH media using NBS plates, by OD(600)

Acinetobacter baumannii = test: microbe, parasite or virus in culture; conditions: ATCC 19606, 18 h, ASSAY_TEST Inhibition of Bacterial Growth, detection method Absorption (OD600), MEDIA CAMHB, plate type 384well, NBS, CORNING #3640
Description: Antibacterial activity against Acinetobacter baumannii ATCC 19606 (CO-ADD:GN_034); MIC in CAMBH media using NBS plates, by OD600

Candida albicans = test: microbe, parasite or virus in culture; conditions: ATCC 90028, ASSAY_TEST Inhibition of Fungal Growth, detection method Absorption (OD530), plate type 384well, NBS, CORNING #3640
Description: Antifungal activity against Candida albicans ATCC 90028 (CO-ADD:FG_001); MIC in YNB media using NBS plates, by OD630

Description for Cryptococcus neoformans: Antifungal activity against Cryptococcus neoformans H99 ATCC 208821 (CO-ADD:FG_002); MIC in YNB media using NBS plates, by Resazurin OD(600-570)

Row | MIC (Cryptococcus neoformans) [µg/mL] | MIC (Staphylococcus aureus) [µg/mL] | MIC (Escherichia coli) [µg/mL] | MIC (Klebsiella pneumoniae) [µg/mL] | MIC (Pseudomonas aeruginosa) [µg/mL] | MIC (Acinetobacter baumannii) [µg/mL] | MIC (Candida albicans) [µg/mL] | Structure (SMILES) | CC50 (HEK293) [µg/mL]
1 | > 32 | ≤ 0.25 | ≤ 0.25 | ≤ 0.25 | ≤ 0.25 | 0.5 | > 32 | CC1COc2c(N3CCN(C)CC3)c(F)cc3c(=O)c(C(=O)Nc4ccc(-c5n[nH]c(=S)o5)cc4)cn1c23.Cl (configuration not stated) | > 32
2 | > 32 | 32 | 4 | 32 | 32 | 32 | > 32 | Cl.O=C(Nc1ccc(-c2n[nH]c(=S)o2)cc1)c1cn(C2CC2)c2cc(N3CCNCC3)c(F)cc2c1=O | 17.8
3 | > 32 | > 32 | > 32 | > 32 | > 32 | > 32 | > 32 | CC(O)C1C(=O)N2C(C(=O)Nc3ccc(-c4n[nH]c(=S)o4)cc3)=C(SC3CNC(C(=O)N(C)C)C3)C(C)C12.Cl (configuration not stated) | > 32
4 | > 32 | ≤ 0.25 | ≤ 0.25 | ≤ 0.25 | 4 | ≤ 0.25 | > 32 | COc1c(N2CC3CCCNC3C2)c(F)cc2c(=O)c(C(=O)Nc3ccc(-c4n[nH]c(=S)o4)cc3)cn(C3CC3)c12.Cl (configuration not stated) | 6.76
